# Data reported in article PMC9822168, “The Use of Flavylium Salts as Dynamic Inhibitor Moieties for Human Cb5R” (Molecules, 2022).
# Like-named read-outs stand apart in the source and are kept apart here.
# Assays:
# [1] = target: NADH: ferricytochrome b5 reductase; set-up: method as in PMID 22542668; conditions: cited from earlier work; for IC50: read-out: IC50 against NADH: ferricytochrome b5 reductase
# [2] = target: T1, Cb5R in rat liver microsomes (Rattus norvegicus, UniProt P20070); experiment: NADH: ferricyanide reductase activity in rat liver microsomes; assay type: biochemical; conditions: for inhibition at 40 µM: 40 µM compound; for IC50: microsomes 5.6 µg/mL of protein; for Maximum inhibition of NADH: ferricyanide reductase activity in microsomes, E form / Maximum inhibition of NADH: ferricyanide reductase activity in microsomes, NE form: up to 100 µM compound
# T1 construct: testing the action of compounds 1 and 5 against the Cb5R present in rat liver microsomes; from tissue; host or cells: rat liver microsomes
# T1 sequence (P20070 1-301): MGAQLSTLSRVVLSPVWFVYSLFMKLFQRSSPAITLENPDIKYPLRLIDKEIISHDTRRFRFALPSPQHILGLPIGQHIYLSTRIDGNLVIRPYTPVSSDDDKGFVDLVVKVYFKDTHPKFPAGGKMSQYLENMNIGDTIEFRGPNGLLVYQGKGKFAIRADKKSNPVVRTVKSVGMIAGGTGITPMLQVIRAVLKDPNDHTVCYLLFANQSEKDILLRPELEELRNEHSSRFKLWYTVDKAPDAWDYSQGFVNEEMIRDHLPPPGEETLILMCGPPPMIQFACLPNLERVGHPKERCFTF
# Procedure: To further assess the biological relevance of the tested compounds as inhibitors of the Cb5R, we measure the inhibition dependence of the NADH: ferricyanide reductase activity in rat liver microsomes (Figure 6a). All tested compounds follow a dose-dependent effect on this activity, although the maximum inhibition achieved for them was not the same as measured with the purified recombinant enzyme.
# (§1) Livers were obtained from add livitum rats. Microsomes were prepared as previously performed, with slight differences. […] Buffer (3 mL) was used per gram of liver tissue. After homogenization, the lysate was centrifuged at 960× g for 10 min at 4 °C. The supernatant was collected and centrifuged at 9800× g for 20 min at 4 °C. Finally, the supernatant was centrifuged at 53170× g for 60 min at 4 °C. The microsomal sediment was resuspended in the same buffer and frizzed at −80 °C until use.
# [3] = target: T2, Cb5R from microsomes (Rattus norvegicus, UniProt P20070); experiment: NADH-dependent superoxide anion production (NADH: NBT reductase activity sensitive to SOD and CAT) of microsomes; assay type: biochemical; conditions: microsomes 5.2 µg/mL, without compound 2.3 ± 0.1; for Superoxide anion production of microsomes in presence of compound, NE form: non-equilibrated
# T2 construct: testing the action of compounds 1 and 5 against the Cb5R present in rat liver microsomes; from tissue; host or cells: rat liver microsomes
# T2 sequence (P20070 1-301): T1 sequence (P20070 1-301)
# Procedure: Finally, we measured the effect of compounds 1 and 5 on the previously described NADH-dependent superoxide anion production of the Cb5R by quantifying the inhibitory effect of the compounds on the NADH: nitro blue tetrazolium (NBT) reductase activity of Cb5R from microsomes sensitive to superoxide dismutase (SOD) and catalase (CAT) (Figure 6c). The NADH: NBT reductase activity of Cb5R measured with microsomes (5.2 µg/mL) was 4.4 ± 0.1 µM/min.
# [4] = UV-vis spectra of species interconversion in phosphate buffer pH 7.0; assay type: physicochemical; conditions: 24 h in phosphate buffer pH 7.0, relative to value after 2 min incubation
# Procedure: The stock solutions of the flavylium compounds were prepared in dimethyl sulfoxide (DMSO): H2O (99:1) containing 0.1M of HCl. To estimate the predominant species of the used compounds (Figure 1), 10 µL of stock solution of each compound was added to potassium phosphate buffer at pH 7.0. The UV-vis spectra were recorded immediately (Figure S1, black lines) and after 2 min (red lines). […] The spectral signatures, i.e., the observation of absorption bands in the visible and UV-vis regions, pointed out the existence of the quinoidal base and colorless hemiketal/chalcone species mixtures under non-equilibrated conditions.
# Stock solutions of compounds at acid pH values (non-equilibrated (NE) in the media) and by incubation in phosphate buffer at pH 7.0 for 24 h were prepared, and their UV-vis was measured in phosphate buffer pH 7.0. As expected, the mole fraction of the quinoidal base of compounds 1 and 5 partially disappeared, leading to the formation of the respective trans-chalcone species after a 24 h incubation in phosphate buffer at pH 7.0 (Supplementary Figure S2). We monitored the spectra of compounds 1 and 5 (black and grey line, respectively) after immediate addition into phosphate buffer pH 7.0 (continuous line) or after incubation in this buffer for 24 h (dotted line). […]
# [5] = target: T1, Cb5R in rat liver microsomes; experiment: NADH: Cb5 reductase activity of rat liver microsomes; assay type: biochemical; conditions: 40 µM compound, Cb5 5 μM, NADH 150 μM
# Procedure: We measured the inhibition of the NADH: Cb5 reductase activity with a fixed concentration of the compounds (Figure 6b) and compared the values with those of the NADH: ferricyanide reductase activity in microsomes (Figure 6a).
# as §1
# [6] = equilibrated, read-out: Inhibition of NADH: ferricyanide reductase activity of microsomes, E form
# [7] = non-equilibrated, read-out: Inhibition of NADH: ferricyanide reductase activity of microsomes, NE form
# [8] = equilibrated, read-out: IC50, NADH: ferricyanide reductase activity of microsomes, E form
# [9] = equilibrated, read-out: Inhibition of NADH: Cb5 reductase activity of microsomes, E form
# [10] = non-equilibrated, read-out: Inhibition of NADH: Cb5 reductase activity of microsomes, NE form
smiles,measurement,setting,value
O=c1c(O)c(-c2ccc(O)c(O)c2)oc2cc(O)cc(O)c12 [quercetin],IC50,[1],1.1 µM
Oc1ccc2ccc(-c3ccc(O)c(O)c3)[o+]c2c1 [Compound 5],inhibition at 40 µM,[2]; [6],81.8 ± 2.3%
same,inhibition at 40 µM,[2]; [7],71 ± 4.7%
same,IC50,[2]; [8],3.3 ± 0.4 µM
same,IC50,"[2]; non-equilibrated, read-out: IC50, NADH: ferricyanide reductase activity of microsomes, NE form",8 ± 2.2 µM
same,"Maximum inhibition of NADH: ferricyanide reductase activity in microsomes, E form",[2]; equilibrated,81 ± 2%
same,"Maximum inhibition of NADH: ferricyanide reductase activity in microsomes, NE form",[2]; non-equilibrated,77 ± 2%
same,"Superoxide anion production of microsomes in presence of compound, NE form",[3],1.4 ± 0.1 µM/min
same,"Quinoidal base disappeared, forming the trans-chalcone",[4],ca. 40%
same,inhibition at 40 µM,[5]; [9],80.6 ± 0.8%
same,inhibition at 40 µM,[5]; [10],65.6 ± 2.9%
O=c1cc(-c2ccc(O)c(O)c2)oc2cc(O)cc(O)c12 [luteolin],IC50,[1],0.11 µM
Oc1cc(O)c2c(c1)O[C@H](c1ccc(O)c(O)c1)[C@H](O)C2 [epicatechin],IC50,[1],3.2 µM
O=C1C[C@@H](c2ccc(O)cc2)Oc2cc(O)cc(O)c21 [Naringenin],Inhibition of Cb5R in vitro,[1]; in vitro studies,did not inhibit
O=c1cc(-c2ccc(O)cc2)oc2cc(O)cc(O)c12 [apigenin],IC50,[1],36 µM
Oc1cc(O)c2c(c1)O[C@H](c1ccc(O)c(O)c1)[C@@H](O)C2 [catechin],IC50,[1],4.5 µM
Oc1ccc(-c2ccc3ccc(O)cc3[o+]2)cc1 [Compound 1],inhibition at 40 µM,[2]; [6],63.4 ± 3.6%
same,inhibition at 40 µM,[2]; [7],4.6 ± 4%
same,IC50,[2]; [8],18 ± 3.8 µM
same,"Maximum inhibition of NADH: ferricyanide reductase activity in microsomes, E form",[2]; equilibrated,85 ±2%
same,"Maximum inhibition of NADH: ferricyanide reductase activity in microsomes, NE form",[2]; non-equilibrated,11 ±7%
same,"Superoxide anion production of microsomes in presence of compound, E form",[3]; equilibrated,1.4 ± 0.1 µM/min
same,"Superoxide anion production of microsomes in presence of compound, NE form",[3],1.7 ± 0.1 µM/min
same,"Quinoidal base disappeared, forming the trans-chalcone",[4],ca. 40%
same,inhibition at 40 µM,[5]; [9],58.8 ± 1.5%
same,inhibition at 40 µM,[5]; [10],25 ± 5.3%
